Reference: patent US20160375006A1, “USES OF PARALOG-SELECTIVE INHIBITORS OF GSK3 KINASES” (priority 2012, published 2016)
Where two headings read alike, the source gives them in different places.

What was measured:
GSK3β [1] = molecular target: T1, GSK3β (Homo sapiens, UniProt P49841); assay: biochemical
GSK3β [2] = molecular target: T1, GSK3β
GSK3α = GSK3α (Homo sapiens, UniProt P49840); assay: biochemical
Description: Reactions were terminated by the addition of 10 mM EDTA. Substrate and product were separated electrophoretically and fluorescence intensity of the substrate and product was determined by Labchip EZ Reader II (Caliper Life Sciences, MA). The kinase activity was measured as percent conversion. The reactions were performed in duplicate for each sample. […] The results were analyzed by Genedata Assay Analyzer. The percent inhibition was plotted against the compound concentration and the IC50 value was determined from the logistic dose-response curve fitting.

[3] = Caliper assay, GSK3β over GSK3α

T1 sequence (P49841 whole entry): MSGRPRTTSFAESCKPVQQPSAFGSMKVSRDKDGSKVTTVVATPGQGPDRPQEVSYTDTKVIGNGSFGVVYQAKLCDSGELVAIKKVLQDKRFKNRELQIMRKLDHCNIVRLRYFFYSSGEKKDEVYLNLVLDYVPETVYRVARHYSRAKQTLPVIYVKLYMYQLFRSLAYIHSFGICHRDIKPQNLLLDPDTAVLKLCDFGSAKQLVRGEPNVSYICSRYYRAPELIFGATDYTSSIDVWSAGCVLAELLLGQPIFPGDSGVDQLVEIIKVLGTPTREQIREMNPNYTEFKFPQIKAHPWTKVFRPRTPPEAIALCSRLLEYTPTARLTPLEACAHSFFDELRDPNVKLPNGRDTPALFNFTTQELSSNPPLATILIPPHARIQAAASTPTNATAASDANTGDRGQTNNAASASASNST
GSK3α, sequence (P49840 whole entry): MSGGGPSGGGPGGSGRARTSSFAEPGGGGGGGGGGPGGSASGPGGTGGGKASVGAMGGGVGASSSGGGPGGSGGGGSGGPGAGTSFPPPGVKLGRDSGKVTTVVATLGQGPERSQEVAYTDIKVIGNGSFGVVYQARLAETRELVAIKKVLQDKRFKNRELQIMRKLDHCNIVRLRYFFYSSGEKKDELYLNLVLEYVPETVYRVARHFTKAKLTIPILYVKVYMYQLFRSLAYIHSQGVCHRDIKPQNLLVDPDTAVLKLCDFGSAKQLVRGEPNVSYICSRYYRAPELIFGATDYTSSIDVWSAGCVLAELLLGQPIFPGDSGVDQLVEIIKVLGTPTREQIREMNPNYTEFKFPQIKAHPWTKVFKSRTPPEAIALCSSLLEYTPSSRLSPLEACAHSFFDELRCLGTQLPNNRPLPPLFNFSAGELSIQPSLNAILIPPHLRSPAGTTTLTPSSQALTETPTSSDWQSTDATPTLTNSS

| IC50 (GSK3β [1]) [nM] | GSK3β fold selectivity (GSK3β [2]; [3]) [fold] | IC50 (GSK3α) [nM] | GSK3β fold selectivity (GSK3β [2]; GSK3β over GSK3α) [fold] | SMILES | GSK3β fold selectivity (GSK3β [2]) [fold] |
| --- | --- | --- | --- | --- | --- |
| 57 | 8.1 | 462 | – | COc1ccccc1[C@H]1C2=C(CC(C)(C)CC2=O)Nc2n[nH]c(C(C)C)c21 [Compound 295] | – |
| 3430 | 3.8 | 12900 | – | CC(C)c1[nH]nc2c1[C@@](C)(c1ccccc1Cl)C1=C(CC(C)(C)CC1=O)N2 (stereo in doubt) [Compound 317] | – |
| 372 | 2.9 | 1060 | – | CC1(C)CC(=O)C2=C(C1)Nc1n[nH]c(C3CCCC3)c1[C@]2(C)c1ccccc1 (stereo in doubt) [Compound 301] | – |
| 66 | 5.8 | 386 | – | CC(C)c1[nH]nc2c1[C@](C)(c1ccccc1F)C1=C(CC(C)(C)CC1=O)N2 (stereo in doubt) [Compound 312] | – |
| 11 | 22.6 | 249 | – | CC(C)(C)Cc1[nH]nc2c1[C@@]1(CCc3cc(F)ccc31)C1=C(CC(C)(C)CC1=O)N2 (stereo in doubt) [Compound 285] | – |
| 52 | 6.4 | 332 | – | CCC(C)(C)Cc1[nH]nc2c1[C@](C)(c1ccccc1)C1=C(CC(C)(C)CC1=O)N2 (stereo in doubt) [Compound 291] | – |
| 84 | 14.9 | 1250 | – | COc1ccccc1[C@H]1C2=C(CC(C)(C)CC2=O)Nc2n[nH]c(C3CC(F)(F)C3)c21 (stereo in doubt) [Compound 251] | – |
| 104 | 10.2 | 1060 | – | CC(C)(C)Cc1[nH]nc2c1[C@](C)(c1ccc(F)cc1)C1=C(CC(C)(C)CC1=O)N2 (stereo in doubt) [Compound 276] | – |
| 229 | 2.1 | 479 | – | CC(C)c1[nH]nc2c1[C@@](C)(c1ccccc1)C1=C(CC(C)(C)CC1=O)N2 (stereo in doubt) [Compound 298] | – |
| 30 | 13.1 | 392 | – | COc1ccccc1C1C2=C(CC(C)(C)CC2=O)Nc2n[nH]c(C3CC(F)(F)C3)c21 (racemic) [Compound 250] | – |
| 790 | 6.0 | 4760 | – | CC(C)(C)Cc1[nH]nc2c1[C@]1(CCc3cc(F)ccc31)C1=C(CC(C)(C)CC1=O)N2 (stereo in doubt) [Compound 286] | – |
| 132 | 4.7 | 623 | 4.7 | CC1(C)CC(=O)C2=C(C1)Nc1n[nH]c(C3CC(F)(F)C3)c1C2(C)c1ccccc1 (racemic) [Compound 120] | – |
| 3020 | 4.0 | 12000 | – | CCC(C)(C)Cc1[nH]nc2c1[C@@](C)(c1ccccc1)C1=C(CC(C)(C)CC1=O)N2 (stereo in doubt) [Compound 292] | – |
| 1910 | 5.6 | 10600 | – | COc1ccccc1[C@@H]1C2=C(CC(C)(C)CC2=O)Nc2n[nH]c(CC(C)(C)C)c21 (stereo in doubt) [Compound 280] | – |
| 100 | 3.4 | 340 | – | CCC1(c2ccccc2)C2=C(CC(C)(C)CC2=O)Nc2n[nH]c(CC(C)(C)C)c21 (centres unmarked) [Compound 274] | – |
| 18 | 7.7 | 139 | – | CC(C)(C)Cc1[nH]nc2c1[C@@]1(CCOc3ccccc31)C1=C(CC(C)(C)CC1=O)N2 (stereo in doubt) [Compound 288] | – |
| 530 | 5.6 | 2980 | – | CC(C)(C)Cc1[nH]nc2c1[C@]1(CCOc3ccccc31)C1=C(CC(C)(C)CC1=O)N2 (stereo in doubt) [Compound 289] | – |
| 212 | 9.0 | 1910 | – | CC(C)(C)Cc1[nH]nc2c1[C@]1(CCc3ccccc31)C1=C(CC(C)(C)CC1=O)N2 (stereo in doubt) [Compound 283] | – |
| 44 | 8.6 | 379 | – | CCC(C)(C)Cc1[nH]nc2c1C(C)(c1ccccc1)C1=C(CC(C)(C)CC1=O)N2 (racemic) [Compound 290] | – |
| 328 | 1.6 | 523 | – | CC1(C)CC(=O)C2=C(C1)Nc1n[nH]c(C3CC(F)(F)C3)c1C2(C)c1cccc(C(F)(F)F)c1 (racemic) [Compound 247] | – |
| 27 | 6.6 | 178 | – | CC(C)c1[nH]nc2c1[C@]1(CCc3ccccc31)C1=C(CC(C)(C)CC1=O)N2 (stereo in doubt) [Compound 243] | – |
| 439 | 3.5 | 1520 | – | CC1(C)CC(=O)C2=C(C1)Nc1n[nH]c(C3CCCC3)c1C2(C)c1ccccc1 (racemic) [Compound 300] | – |
| 63 | 7.7 | 485 | – | CC(C)(C)Cc1[nH]nc2c1C1(CCc3cc(F)ccc31)C1=C(CC(C)(C)CC1=O)N2 (racemic) [Compound 284] | – |
| 10 | 7.8 | 78 | 6.4 | CC1(C)CC(=O)C2=C(C1)Nc1n[nH]c(C3CC(F)(F)C3)c1[C@]2(C)c1ccccc1 (stereo in doubt) [Compound 127] | – |
| 977 | 2.4 | 2380 | – | CC1(C)CC(=O)C2=C(C1)Nc1n[nH]c(C3CCCCC3)c1[C@]2(C)c1ccccc1 (stereo in doubt) [Compound 304] | – |
| 20 | 13.6 | 271 | – | COc1cc(F)ccc1[C@H]1C2=C(CC(C)(C)CC2=O)Nc2n[nH]c(C(C)C)c21 [Compound 323] | – |
| 24 | 2.3 | 56 | – | CC(C)c1[nH]nc2c1[C@](C)(c1ccccc1)C1=C(CC(C)(C)CC1=O)N2 (stereo in doubt) [Compound 297] | – |

| SMILES | IC50 (GSK3β [1]) [nM] | GSK3β fold selectivity (GSK3β [2]; [3]) [fold] | IC50 (GSK3α) [nM] | GSK3β fold selectivity (GSK3β [2]; GSK3β over GSK3α) [fold] | GSK3β fold selectivity (GSK3β [2]) [fold] |
| --- | --- | --- | --- | --- | --- |
| CC1(C)CC(=O)C2=C(C1)Nc1n[nH]c(C3CC(F)(F)C3)c1C21CCOc2ccccc21 (racemic) [Compound 268] | 78 | – | 865 | – | 11.1 |
| CC1(C)CC(=O)C2=C(C1)Nc1n[nH]c(C3CC(F)(F)C3)c1C21CCc2c(F)cccc21 (racemic) [Compound 261] | 56 | – | 426 | – | 7.6 |
| CC1(C)CC(=O)C2=C(C1)Nc1n[nH]c(C3CC(F)(F)C3)c1C21CCCc2ccccc21 (centres unmarked) [Compound 267] | 38 | – | 342 | – | 9.0 |
| CC1(C)CC(=O)C2=C(C1)Nc1n[nH]c(C3CC(F)(F)C3)c1[C@]21COc2ccccc21 [Compound 257] | 21 | – | 339 | – | 16.1 |
| CC1(C)CC(=O)C2=C(C1)Nc1n[nH]c(C3CC(F)(F)C3)c1[C@]21CCc2cc(F)ccc21 [Compound 266] | 38 | – | 342 | – | 9.0 |
| CC1(C)CC(=O)C2=C(C1)Nc1n[nH]c(C3CC(F)(F)C3)c1C21CCc2ccccc21 (racemic) [Compound 258] | 18 | – | 185 | – | 10.3 |
